From patent US9682079B2, “Composition for treatment of pathogens that are resistant to tetracyclines” (BIOVERSYS AG, priority 2013, dated 2017)

Experiments:
[1] = test system: Antibiotic-resistant staphylococcal, enterococcal, enterobacterial or acinetobacter isolates; test: Broth micro-dilution assay in clinical patient isolates, compound in combination with tetracyclines; assay type: cell-based; conditions: 4 μg/ml tetracyclines and 10 μg/ml compound; OD610 16 to 20 hours after inoculation, normalized to DMSO control (100%)
Excerpt: Microdilution Assay in Clinical Patient Isolates
Broth Micro-Dilution Assay in Cation-Adjusted Mueller-Hinton (CA-MHB)
The assay protocol is adapted from the Clinical and Laboratory Standards Institute (CLSI) standardized method for broth microdilution. This methodology was used to evaluate the susceptibility of pathogenic clinical isolates towards different antibiotics in combination with a compound of the invention.
Antibiotic-resistant staphylococcal, enterococcal, enterobacterial or acinetobacter isolates were scraped from fresh Orientation Agar plates, suspended in saline solution with the turbidity adjusted to OD610 of 0.1 (corresponds to 0.5 McFarland scale). Subsequently, the cultures were diluted 160× in CA-MHB medium and a volume of 80 μl was dispensed into each well of a 96 well microtiter plate. Plates were covered and incubated for 16 to 20 hours at 35° C. without shaking. Plates were then visually analyzed, scanned and subsequently the OD610 was determined. Average and standard deviations were calculated from at least two wells with the same condition. Values were normalized to the DMSO control (which is 100%).
(§1) Correlation of the synergistic effect of compounds of the invention with tetracyclines on bacterial growth inhibition (% growth relative to DMSO; 4 μg/ml tetracyclines and 10 μg/ml compounds of the invention) and TetR/tetO interaction (% association of TetR to tetO relative to DMSO). Bacterial growth was analysed 16 to 20 hours after inoculation according to CLSI guidelines. OD610 was determined with a Tecan Infinite F200 and normalized to the DMSO control. The interaction of TRIC compounds with the TetR protein and the effect on TetR-tetO operator DNA binding was analyzed with a FortéBio's Octet red and normalized to the DMSO control.

TetR/tetO interaction = test: DNA/protein (tetO/TetR) interaction assay, FortéBio Octet Red; assay type: binding; conditions: % association of TetR to tetO; compound 10 μg/mL & tetracycline 10 ng/mL mix in running buffer; normalized to DMSO control
Protocol: Biacore Based DNA/Protein (tetO/TetR) Interaction Assay
The FortéBio technology (FortéBio, Inc., Menlo Park, Calif., USA) is a novel label-free methodology for analyzing macromolecular ligand/capture interactions. The Octet system can be used to measure real-time, label-free analysis of biomolecular interactions and provide information on affinity, kinetics and concentration. The instrument is designed to assay up to eight samples in parallel in 2 min from a standard 96-well micro-plate. The detection technology utilized in the Octet is based on Biolayer Interferometry (BLI). BLI relies on the reflective property of white light and is implemented in the Octet via the use of fiber optic-based biosensors. The biosensors are coated with molecules chosen to capture the targeted ligands. The measurements were performed on an Octet Red system equipped with streptavidin biosensor tips (SA). Tips were purchased from FortéBio.
Interaction Studies: FortéBio's Octet Red
Interaction analyses were conducted at 30° C. in running buffer (HBS-P+5 mmol/L MgSO4) unless stated otherwise. (HBS-P buffer: 10 mM Hepes (pH 7.4), 150 mM NaCl, 0.005% (v/v) polysorbate P20, and 5 mmol/L MgSO4; a 10×HBS-P buffer from GE Healthcare was used). Temperature control on the Octet was accomplished by holding the instrument at room temperature so that it could be heated to 30° C. Sensor tips were pre-wet for 10 min in running buffer immediately prior to use, and the micro plates used in the Octet were filled with 200 μl of sample or buffer per well and agitated at 600 rpm. For the experiments commercially available precoated streptavidine tips were used (SA).
Biotinylated oligos were loaded onto the FortéBio SA fibers in HBS-P buffer pH 7.4. Protein binding experiments were run with HBS-P buffer unless stated otherwise. After each run the tip was regenerated (maximum 4 times) with running buffer containing 0.3% w/v sodium dodecylsulfate (SDS).
as §1

Compound	Growth (% rel. to DMSO) [1] [%]	Association (% rel. to DMSO) (TetR/tetO interaction) [%]
O=C(NCc1cc(O)ccc1O)c1ccccc1 [Example 1, N-[(2,5-dihydroxyphenyl)methyl]benzamide]	55.20	15.84
O=C(NCc1cc(O)ccc1O)c1cc(F)cc(F)c1 [Example 2]	34.40	51.60
O=C(NCCc1cc(O)ccc1O)c1ccccc1 [Example 3]	41.10	63.20
O=C(c1cc(O)ccc1O)N1CCN(c2ccccc2)CC1 [Example 4]	63.87	–
O=C(NCc1cc(O)ccc1O)c1ccccc1F [Example 5]	56.57	30.49
O=C(NCc1cc(O)ccc1O)c1cccc(F)c1 [Example 6]	60.43	25.61
O=C(NCc1cc(O)ccc1O)c1cc(F)ccc1O [Example 7]	56.50	26.83
O=C(NCc1cc(O)ccc1O)c1cc(F)ccc1F [Example 8]	69.68	42.57
O=C(NCc1cc(O)ccc1O)c1ccc(C(F)(F)F)cc1 [Example 9]	25.91	16.22
O=C(NCc1cc(O)ccc1O)c1cc(C(F)(F)F)ccc1C(F)(F)F [Example 10]	47.14	25.68
O=C(NCc1cc(O)ccc1O)c1cc(C(F)(F)F)cc(C(F)(F)F)c1 [Example 11]	26.14	19.59
CCCCC(=O)NCc1ccc(-c2ccccc2)cc1O [Example 12, N-[(2-hydroxy-4-phenyl-phenyl)-methyl]pentanamide]	5.76	1.60
CCC(=O)NCc1cc(OC)c(-c2ccccc2)cc1OC [Example 13]	4.74	–
CCC(=O)Nc1ccccc1Oc1ccc(Cl)cc1 [Example 14, N-[2-(4-chlorophenoxyl)phenyl]propanamide]	18.21	10.26
CCCCC(=O)Nc1ccccc1Oc1ccc(Cl)cc1 [Example 15]	4.88	85.19
O=C(CCc1ccccc1)Nc1ccccc1Oc1ccc(Cl)cc1 [Example 16]	6.15	2.52
CC(C)C(=O)NCc1cccc(-c2ccccc2)c1O [Example 17]	8.11	70.49
COc1ccc(OC)c2c1CCC(C(=O)NCC(C)C)C2 (stereo not shown) [Example 18]	103.70	13.64
CC(C)CNC(=O)C1CCc2c(O)ccc(O)c2C1 (stereo not shown) [Example 19]	11.50	54.02

Compound	Growth (% rel. to DMSO) [1] [%]	Association (% rel. to DMSO) (TetR/tetO interaction) [%]
COc1ccc(OC)c2c1CCCC2C(=O)NCC(C)C (stereo not shown) [Example 20, N-isobutyl-5,8-dimethoxy-tetralin-1-carboxamide]	63.75	97.40
CC(C)CNC(=O)C1CCc2c(c(O)c3ccccc3c2O)C1 (stereo not shown) [Example 21]	25.77	–
CC(C)CNC(=O)C1CCc2c(O)c3c(c(O)c2C1)C(=O)C=CC3=O (stereo not shown) [Example 22]	61.29	108.99
O=C(NCc1cc(F)cc(F)c1)C1CCc2c(O)ccc(O)c2C1 (stereo not shown) [Example 23, N-[(3,5-difluorophenyl)methyl]-5,8-dihydroxy-tetralin-2-carboxamide]	8.15	22.69
O=C(NCc1ccccc1)C1CCc2c(O)ccc(O)c2C1 (stereo not shown) [Example 24]	48.15	54.12
O=C(NCc1cc(C(F)(F)F)cc(C(F)(F)F)c1)C1CCc2c(O)ccc(O)c2C1 (stereo not shown) [Example 25]	90.15	11.76
CN(Cc1ccccc1)C(=O)C1CCc2c(O)ccc(O)c2C1 (stereo not shown) [Example 26]	55.92	43.52
O=C(NCc1ccc(C(F)(F)F)cc1)C1CCc2c(O)ccc(O)c2C1 (stereo not shown) [Example 27]	58.69	23.15
O=C(Nc1nnc(-c2ccc(O)cc2)s1)C1CCc2c(O)ccc(O)c2C1 (stereo not shown) [Example 28]	46.79	36.62
CC(C)(C)c1ccc(CNC(=O)C2CCc3c(O)ccc(O)c3C2)cc1 (stereo not shown) [Example 29]	23.58	–
O=C(NCc1ccc(-c2ccccc2)cc1)C1CCc2c(O)ccc(O)c2C1 (stereo not shown) [Example 30]	15.00	25.35
O=C(NCc1cc(F)ccc1O)C1CCc2c(O)ccc(O)c2C1 (stereo not shown) [Example 31]	68.68	20.42
O=C(Nc1ccccc1)C1CCc2c(O)ccc(O)c2C1 (stereo not shown) [Example 32]	58.27	25.35
O=C(NCCCc1ccccc1)C1CCc2c(O)ccc(O)c2C1 (stereo not shown) [Example 33]	16.62	19.05
O=C(NCC1CCCCC1)C1CCc2c(O)ccc(O)c2C1 (stereo not shown) [Example 34]	13.58	21.09
O=C(NCc1cc(F)ccc1F)C1CCc2c(O)ccc(O)c2C1 (stereo not shown) [Example 35]	25.80	30.61
O=C(NCc1ccc(F)cc1F)C1CCc2c(O)ccc(O)c2C1 (stereo not shown) [Example 36]	33.52	27.89
O=C(Nc1ccccc1Oc1ccc(Cl)cc1)C1CCc2c(O)ccc(O)c2C1 (stereo not shown) [Example 37]	10.42	14.18
